Assays:
sugarbeet = experiment: Test B pan test in Sassafras sandy loam soil, pre- and postemergence; type: in vivo, Beta vulgaris; settings: scale 0 to 100
Description: (§1) Three round pans (25 cm diameter by 12.5 cm deep) were filled with Sassafras sandy loam soil. One pan was planted with nutsedge (Cyperus rotundus) tubers, crabgrass (Digitaria sanguinalis), sicklepod (Cassia obtusifolia), jimsonweed (Datura stramonium), velvetleaf (Abutilon theophrasti), lambsquarters (Chenopodim album), rice (Oryza sativa) and teaweed (Sida spinosa). The second pot was planted with green foxtail (Setaria viridis), cocklebur (Xantium pensyivanicum), morningglory (lpomoea hederacea), cotton (Gossypium hirsutum), johnsongrass (Sorghum halepense), barnyardgrass (Echinochloa crusgalli), corn (Zea mays), soybean (Glycine max) and giant foxtail (Setaria faberi). The third pot was planted with wheat (Triticum aestivum), barley (Hordeum vulgare), wild buckwheat (Polgonum convolvulus L.), cheatgrass (Bromus secalinus L.), sugarbeet (Beta vulgaris), wild oats (Avena fatua), viola (Viola arvensis), blackgrass (Alopecurus myosuroides), and rape (Brassica napus). The plants were grown for approximately fourteen days, then sprayed postemergence with the chemicals dissolved in a non-phytotoxic solvent.
(§2) Three round pans (25 cm diameter by 12.5 cm deep) were filled with Sassafras sandy loam soil. One pan was planted with nutsedge tubers, crabgrass, sicklepod, jimsonweed, velvetleaf, lambsquarters, rice and teaweed. The second pot was planted with green foxtail, cocklebur, morningglory, cottom, johnsongrass, . barnyardgrass, corn, soybean and giant foxtail. The third pot was planted with wheat, barley, wild buckwheat, cheatgrass, sugarbeet, wild oat, viola, blackgrass and rape. The three pans were sprayed preemer gence with the chemicals dissolved in a non-phytotoxic solvent.
(§3) Treated plants and controls were maintained in the greenhouse for 24 days, then all rated plants were compared to controls and visually rated for plant response.
(§4) A dash (-) response means no test.

nutsedge = experiment: as above; type: in vivo, Cyperus rotundus; settings: scale 0 to 100
Description: as §1, §2, §3, §4

Question: With `CCOC(=O)c1c(CC#N)cccc1S(=O)(=O)NC(=O)Nc1nc(OC)cc(OC)n1` [Compound 3, 2-(cyanomethyl)-6 [[(4,6-dimethoxypyrimidin-2-yl)-aminocarbonyl]aminosulfonyl]benzoic acid, ethyl ester] as the compound, how does the “SUGAR BEETS response rating” value (sugarbeet; POSTEMERGENCE, RATE 0001 G/HA) read?
Answer: 70

Question: What about the “SUGAR BEETS response rating” value (sugarbeet; POSTEMERGENCE, RATE 0004 G/HA) of the same compound?
Answer: 100

Question: What about the “SUGAR BEETS response rating” value (sugarbeet; POSTEMERGENCE, RATE 0016 G/HA) of the same compound?
Answer: 100

Question: What about the “SUGAR BEETS response rating” value (sugarbeet; POSTEMERGENCE, RATE 0062 G/HA) of the same compound?
Answer: 100

Question: And the “SUGAR BEETS response rating” value (sugarbeet; PREEMERGENCE, RATE 0004 G/HA)?
Answer: 50

Question: What about the “SUGAR BEETS response rating” value (sugarbeet; PREEMERGENCE, RATE 0016 G/HA) of the same compound?
Answer: 70

Question: And the “SUGAR BEETS response rating” value (sugarbeet; PREEMERGENCE, RATE 0062 G/HA)?
Answer: 90

Question: What about the NUTSEDGE response rating (nutsedge; POSTEMERGENCE, RATE 0001 G/HA) of the same compound?
Answer: 100

Question: What about the NUTSEDGE response rating (nutsedge; POSTEMERGENCE, RATE 0004 G/HA) of the same compound?
Answer: 100

Question: What about the NUTSEDGE response rating (nutsedge; POSTEMERGENCE, RATE 0016 G/HA) of the same compound?
Answer: 100

Question: What about the NUTSEDGE response rating (nutsedge; POSTEMERGENCE, RATE 0062 G/HA) of the same compound?
Answer: 100

Question: What about the NUTSEDGE response rating (nutsedge; PREEMERGENCE, RATE 0004 G/HA) of the same compound?
Answer: 0

Question: What about the NUTSEDGE response rating (nutsedge; PREEMERGENCE, RATE 0016 G/HA) of the same compound?
Answer: 30

Question: And the NUTSEDGE response rating (nutsedge; PREEMERGENCE, RATE 0062 G/HA)?
Answer: 70
